{"source": "patent US20100222332A1", "about": "“PYRAZOLO-PYRAZINES DERIVATIVES USED AS G PROTEIN INHIBITORS” (Ipsen Pharma S.A.S., priority 2007, published 2010)", "key": {"[1]": {"tested_on": "LNCaP (human prostate cancer cells)", "test": "Anti-proliferative activity on LNCaP cell line (WST1 colorimetric test)", "format": "cell-based", "conditions": "treated for 96 hours, read-out: IC50 on the cell proliferation of the LNCaP lines", "protocol": "(§1) By way of example, the effect of a treatment on three human cell lines DU145, LNCaP and A2058 with the compounds of the examples described previously will be studied. The cell lines DU145 and LNCaP (human prostate cancer cells) and A2058 (human melanoma cancer cells) were acquired from the American Tissue Culture Collection (Rockville, Md., USA). The cells placed in 80 μl of Dulbecco's Modified Eagle medium (Gibco-Brl, Cergy-Pontoise, France) completed with 10% foetal calf serum inactivated by heating (Gibco-Brl, Cergy-Pontoise, France), 50000 units/l of penicillin and 50 mg/l streptomycin (Gibco-Brl, Cergy-Pontoise, France), and 2 mM of glutamin (Gibco-Brl, Cergy-Pontoise, France) were seeded on a 96-well plate on day 0. The cells were treated on day 1 for 96 hours with increasing concentrations of each of the compounds to be tested up to 10 μM. At the end of this period, the quantification of the cell proliferation is evaluated by a colorimetric test based on the cleavage of the tetrazolium salt WST1 by mitochondrial dehydrogenases in the viable cells leading to the formation of formazan (Boehringer Mannheim, Meylan, France). These tests are carried out in duplicate with 8 determinations per tested concentration. For each compound to be tested, the values included in the linear part of the sigmoid were retained for linear regression analysis and used in order to estimate the inhibitory concentration IC50. The products are solubilized in dimethylsulphoxide (DMSO) at 10^−2 M and finally used in culture with 0.1% DMSO."}, "[2]": {"tested_on": "A2058 (human melanoma cancer cells)", "test": "Anti-proliferative activity on A2058 cell line (WST1 colorimetric test)", "format": "cell-based", "conditions": "treated for 96 hours, read-out: IC50 on the cell proliferation of the A2058 lines", "protocol": "as §1"}, "[3]": {"tested_on": "DU145 (human prostate cancer cells)", "test": "Anti-proliferative activity on DU145 cell line (WST1 colorimetric test)", "format": "cell-based", "conditions": "DU-145, treated for 96 hours, read-out: IC50 on the cell proliferation of the DU145 lines", "protocol": "as §1"}}, "note": "Structures can show the parent of a compound that is named as a salt. Where two headings read alike, the source gives them in different places."}
{"smiles": "CC(C)(C)OC(=O)N[C@@H](CSSC[C@H](NC(=O)OC(C)(C)C)C(=O)N1CCn2nc(-c3ccncc3)cc2C1CCc1ccccc1)C(=O)N1CCn2nc(-c3ccncc3)cc2C1CCc1ccccc1", "note": "(mixture of isomers) [Example 3, tert-butyl {(1R)-1-[({(2R)-2-[(tert-butoxycarbonyl)amino]-3-oxo-3-[(4RS)-4-(2-phenylethyl)-2-pyridin-4-yl-6,7-dihydropyrazolo[1,5-a]pyrazin-5(4H)-yl]propyl}dithio)methyl]-2-oxo-2-[(4RS)-4-(2-phenylethyl)-2-pyridin-4-yl-6,7-dihydropyrazolo[1,5-a]pyrazin-5(4H)-yl]ethyl}carbamate]", "values": [{"measurement": "IC50", "setting": "[1]", "result": "≤ 10", "unit": "µM"}]}
{"smiles": "N[C@@H](CSSC[C@H](N)C(=O)N1CCn2nc(-c3ccccc3)cc2C1CC1CCCCC1)C(=O)N1CCn2nc(-c3ccccc3)cc2C1CC1CCCCC1", "note": "(mixture of isomers) [Example 12, (2R)-3-({(2R)-2-amino-3-[(4RS)-4-(cyclohexylmethyl)-2-phenyl-6,7-dihydropyrazolo[1,5-a]pyrazin-5(4H)-yl]-3-oxopropyl}dithio)-1-[(4RS)-4-(cyclohexylmethyl)-2-phenyl-6,7-dihydropyrazolo[1,5-a]pyrazin-5(4H)-yl]-1-oxopropan-2-amine hydrochloride]", "values": [{"measurement": "IC50", "setting": "[2]; bound given in mM", "result": "≤ 0.01", "unit": "mM"}, {"measurement": "IC50", "setting": "[1]", "result": "≤ 1", "unit": "µM"}, {"measurement": "IC50", "setting": "[3]", "result": "≤ 10", "unit": "µM"}]}
{"smiles": "N[C@@H](CSSC[C@H](N)C(=O)N1CCn2nc(-c3ccccc3)cc2C1CCc1ccccc1)C(=O)N1CCn2nc(-c3ccccc3)cc2C1CCc1ccccc1", "note": "(mixture of isomers) [Example 13, (2R)-3-({(2R)-2-amino-3-oxo-3-[(4RS)-2-phenyl-4-(2-phenylethyl)-6,7-dihydropyrazolo[1,5-a]pyrazin-5(4H)-yl]propyl}dithio)-1-oxo-1-[(4RS)-2-phenyl-4-(2-phenylethyl)-6,7-dihydropyrazolo[1,5-a]pyrazin-5(4H)-yl]propan-2-amine hydrochloride]", "values": [{"measurement": "IC50", "setting": "[2]; bound given in mM", "result": "≤ 0.01", "unit": "mM"}, {"measurement": "IC50", "setting": "[1]", "result": "≤ 1", "unit": "µM"}, {"measurement": "IC50", "setting": "[3]; unit inferred", "result": "≤ 15", "unit": "µM"}]}
{"smiles": "N[C@@H](CSSC[C@H](N)C(=O)N1CCn2nc(-c3ccncc3)cc2C1CCc1ccccc1)C(=O)N1CCn2nc(-c3ccncc3)cc2C1CCc1ccccc1", "note": "(mixture of isomers) [Example 14, (2R)-3-({(2R)-2-amino-3-oxo-3-[(4RS)-4-(2-phenylethyl)-2-pyridin-4-yl-6,7-dihydropyrazolo[1,5-a]pyrazin-5(4H)-yl]propyl}dithio)-1-oxo-1-[(4RS)-4-(2-phenylethyl)-2-pyridin-4-yl-6,7-dihydropyrazolo[1,5-a]pyrazin-5(4H)-yl]propan-2-amine hydrochloride]", "values": [{"measurement": "IC50", "setting": "[2]", "result": "≤ 0.03", "unit": "mM"}, {"measurement": "IC50", "setting": "[1]", "result": "≤ 10", "unit": "µM"}]}
{"smiles": "N[C@@H](CSSC[C@H](N)C(=O)N1CCn2nc(-c3cccnc3)cc2C1CCc1ccccc1)C(=O)N1CCn2nc(-c3cccnc3)cc2C1CCc1ccccc1", "note": "(mixture of isomers) [Example 15, (2R)-3-({(2R)-2-amino-3-oxo-3-[(4RS)-4-(2-phenylethyl)-2-pyridin-3-yl-6,7-dihydropyrazolo[1,5-a]pyrazin-5(4H)-yl]propyl}dithio)-1-oxo-1-[(4RS)-4-(2-phenylethyl)-2-pyridin-3-yl-6,7-dihydropyrazolo[1,5-a]pyrazin-5(4H)-yl]propan-2-amine hydrochloride]", "values": [{"measurement": "IC50", "setting": "[2]", "result": "≤ 0.02", "unit": "mM"}, {"measurement": "IC50", "setting": "[1]", "result": "≤ 10", "unit": "µM"}]}
{"smiles": "N[C@@H](CSSC[C@H](N)C(=O)N1CCn2nc(-c3ccc4c(c3)OCO4)cc2C1CCc1ccccc1)C(=O)N1CCn2nc(-c3ccc4c(c3)OCO4)cc2C1CCc1ccccc1", "note": "(mixture of isomers) [Example 16, (2R)-3-({(2R)-2-amino-3-[(4RS)-2-(1,3-benzodioxol-5-yl)-4-(2-phenylethyl)-6,7-dihydropyrazolo[1,5-a]pyrazin-5(4H)-yl]-3-oxopropyl}dithio)-1-[(4RS)-2-(1,3-benzodioxol-5-yl)-4-(2-phenylethyl)-6,7-dihydropyrazolo[1,5-a]pyrazin-5(4H)-yl]-1-oxopropan-2-amine hydrochloride]", "values": [{"measurement": "IC50", "setting": "[2]", "result": "≤ 0.03", "unit": "mM"}, {"measurement": "IC50", "setting": "[1]", "result": "≤ 10", "unit": "µM"}, {"measurement": "IC50", "setting": "[3]", "result": "≤ 20", "unit": "µM"}]}
{"smiles": "COc1cc(-c2cc3n(n2)CCN(C(=O)[C@@H](N)CSSC[C@H](N)C(=O)N2CCn4nc(-c5cc(OC)c(OC)c(OC)c5)cc4C2CCc2ccccc2)C3CCc2ccccc2)cc(OC)c1OC", "note": "(mixture of isomers) [Example 17, (2R)-3-({(2R)-2-amino-3-oxo-3-[(4RS)-4-(2-phenylethyl)-2-(3,4,5-trimethoxyphenyl)-6,7-dihydropyrazolo[1,5-a]pyrazin-5(4H)-yl]propyl}dithio)-1-oxo-1-[(4RS)-4-(2-phenylethyl)-2-(3,4,5-trimethoxyphenyl)-6,7-dihydropyrazolo[1,5-a]pyrazin-5(4H)-yl]propan-2-amine hydrochloride]", "values": [{"measurement": "IC50", "setting": "[2]", "result": "≤ 0.02", "unit": "mM"}, {"measurement": "IC50", "setting": "[1]", "result": "≤ 10", "unit": "µM"}, {"measurement": "IC50", "setting": "[3]; unit inferred", "result": "≤ 15", "unit": "µM"}]}
{"smiles": "N[C@@H](CSSC[C@H](N)C(=O)N1CCn2nc(-c3cccs3)cc2C1CCc1ccccc1)C(=O)N1CCn2nc(-c3cccs3)cc2C1CCc1ccccc1", "note": "(mixture of isomers) [Example 18, (2R)-3-({(2R)-2-amino-3-oxo-3-[(4RS)-4-(2-phenylethyl)-2-(2-thienyl)-6,7-dihydropyrazolo[1,5-a]pyrazin-5(4H)-yl]propyl}dithio)-1-oxo-1-[(4RS)-4-(2-phenylethyl)-2-(2-thienyl)-6,7-dihydropyrazolo[1,5-a]pyrazin-5(4H)-yl]propan-2-amine hydrochloride]", "values": [{"measurement": "IC50", "setting": "[2]", "result": "≤ 0.02", "unit": "mM"}, {"measurement": "IC50", "setting": "[1]", "result": "≤ 5", "unit": "µM"}, {"measurement": "IC50", "setting": "[3]; unit inferred", "result": "≤ 15", "unit": "µM"}]}
{"smiles": "N[C@@H](CSSC[C@H](N)C(=O)N1CCn2nc(-c3ccco3)cc2C1CCc1ccccc1)C(=O)N1CCn2nc(-c3ccco3)cc2C1CCc1ccccc1", "note": "(mixture of isomers) [Example 19, (2R)-3-({(2R)-2-amino-3-[(4RS)-2-(2-furyl)-4-(2-phenylethyl)-6,7-dihydropyrazolo[1,5-a]pyrazin-5(4H)-yl]-3-oxopropyl}dithio)-1-[(4RS)-2-(2-furyl)-4-(2-phenylethyl)-6,7-dihydropyrazolo[1,5-a]pyrazin-5(4H)-yl]-1-oxopropan-2-amine hydrochloride]", "values": [{"measurement": "IC50", "setting": "[2]", "result": "≤ 0.02", "unit": "mM"}, {"measurement": "IC50", "setting": "[1]", "result": "≤ 5", "unit": "µM"}, {"measurement": "IC50", "setting": "[3]; unit inferred", "result": "≤ 15", "unit": "µM"}]}
{"smiles": "CCCCC1c2cc(-c3ccccc3)nn2CCN1C(=O)[C@H](CSSC[C@H](NC(=O)OC(C)(C)C)C(=O)N1CCn2nc(-c3ccccc3)cc2C1CCCC)NC(=O)OC(C)(C)C", "note": "(mixture of isomers) [Example 10, tert-butyl {(1R)-1-[({(2R)-2-[(tert-butoxycarbonyl)amino]-3-[(4RS)-4-butyl-2-phenyl-6,7-dihydropyrazolo[1,5-a]pyrazin-5(4H)-yl]-3-oxopropyl}dithio)methyl]-2-[(4RS)-4-butyl-2-phenyl-6,7-dihydropyrazolo[1,5-a]pyrazin-5(4H)-yl]-2-oxoethyl}carbamate]", "values": [{"measurement": "melting point", "result": "95 to 102", "unit": "°C"}]}
{"smiles": "CC(C)(C)OC(=O)N[C@@H](CSSC[C@H](NC(=O)OC(C)(C)C)C(=O)N1CCCn2nc(-c3ccccc3)cc2C1CC1CCCCC1)C(=O)N1CCCn2nc(-c3ccccc3)cc2C1CC1CCCCC1", "note": "(mixture of isomers) [Example 27, tert-butyl {(1R)-1-[({(2R)-2-[(tert-butoxycarbonyl)amino]-3-[(4RS)-4-(cyclohexylmethyl)-2-phenyl-7,8-dihydro-4H-pyrazolo[1,5-a][1,4]diazepin-5(6H)-yl]-3-oxopropyl}dithio)methyl]-2-[(4RS)-4-(cyclohexylmethyl)-2-phenyl-7,8-dihydro-4H-pyrazolo[1,5-a][1,4]diazepin-5(6H)-yl]-2-oxoethyl}carbamate]", "values": [{"measurement": "melting point", "result": "105 to 116", "unit": "°C"}]}
{"smiles": "CC(C)(C)OC(=O)N[C@@H](CSSC[C@H](NC(=O)OC(C)(C)C)C(=O)N1CCn2nc(-c3ccccc3)cc2[C@@H]1CC1CCCCC1)C(=O)N1CCn2nc(-c3ccccc3)cc2[C@@H]1CC1CCCCC1", "note": "[Example 23, tert-butyl {(1R)-1-[({(2R)-2-[(tert-butoxycarbonyl)amino]-3-[(4S)-4-(cyclohexylmethyl)-2-phenyl-6,7-dihydropyrazolo[1,5-a]pyrazin-5(4H)-yl]-3-oxopropyl}dithio)methyl]-2-[(4S)-4-(cyclohexylmethyl)-2-phenyl-6,7-dihydropyrazolo[1,5-a]pyrazin-5(4H)-yl]-2-oxoethyl}carbamate]", "values": [{"measurement": "melting point", "result": "106 to 108", "unit": "°C"}]}
{"smiles": "CC(C)(C)OC(=O)N[C@@H](CSSC[C@H](NC(=O)OC(C)(C)C)C(=O)N1CCn2nc(-c3ccccc3)cc2[C@H]1CC1CCCCC1)C(=O)N1CCn2nc(-c3ccccc3)cc2[C@H]1CC1CCCCC1", "note": "[Example 25, tert-butyl {(1R)-1-[({(2R)-2-[(tert-butoxycarbonyl)amino]-3-[(4R)-4-(cyclohexylmethyl)-2-phenyl-6,7-dihydropyrazolo[1,5-a]pyrazin-5(4H)-yl]-3-oxopropyl}dithio)methyl]-2-[(4R)-4-(cyclohexylmethyl)-2-phenyl-6,7-dihydropyrazolo[1,5-a]pyrazin-5(4H)-yl]-2-oxoethyl}carbamate]", "values": [{"measurement": "melting point", "result": "114 to 139", "unit": "°C"}]}
